In patent US9561228B2 (Celgene Avilomics Research, Inc., priority 2013, dated 2017):
pEC50, pIC50: −log10 of the molar value.

Columns and labels:
MEK1 activated ERK1 = molecular target: T1, MEK1 activated ERK1 (Homo sapiens, UniProt P27361); assay: Omnia continuous-read kinase assay for potency against MEK1 activated ERK1; assay type: biochemical; settings: MEK1 activated ERK1, ATP at KM; read-out: ERK1 Omnia WT ATP KM IC50
T1 construct: purchased Millipore (Billerica, Mass.) 14-439-K
Summary of the method: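 Apparent IC50 came from initial reaction slopes (RFU vs time) plotted against log inhibitor with a variable-slope fit. Reactions were started with ERK1 (4 nM final) added to 50 μM ATP, roughly at its appKM, and 10 μM Sox-conjugated ST17 peptide in 20 mM Tris pH 7.5, 5 mM MgCl2. Fluorescence was monitored every 71 seconds.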

[1] = test system: ERK1/2 phosphorylation of p90RSK in HT29 cells; assay: pRSK MSD Assay in HT29 cells; assay type: cell-based; settings: Homo sapiens, HT-29, read-out: ERK1/ERK2 PRSK MSD HT29 EC50
Summary of the method: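 Phospho-RSK level, read by electrochemiluminescence on RSK-antibody-coated MSD plates with a phospho-RSK/Sulfo-tag detection pair, reports cellular ERK1/2 activity. HT29 cells, kept overnight in 0.1% FBS medium, were exposed to compound for 120 min at 37° C before lysis.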

[2] = test system: HT-29 cells (colorectal adenocarcinoma); assay: Inhibition of cancer cell proliferation, HT-29 (CellTiterGlo, 72 hours); assay type: cell-based; settings: Homo sapiens
Procedure: Measurement of Inhibition of Cancer Cell Proliferation (HT-29/Colorectal Adenocarcinoma)
The following protocol used an HT-29 cell line, which cell line is a model for colorectal adenocarcinoma. HT-29 cells were split and 3000 cells in 100 μl of growth medium were added per well of a flat-bottom 96-well plate. A two-fold test compound solution in serum-free RPM1640 was made, starting at 5,000 nM. Then, 3-fold serial dilutions were made across the plate from well 1 to well 11. Well 12, the last well in a row on the plate, was left as untreated control. 100 μl compound solutions were then transferred to the wells, so the total volume of media was 200 μl per well. Plates were returned to a 37° C. incubator, and the cells were cultured for 72 hours. To measure cell proliferation after 72 hours, media was discarded from the plates, 50 μl/well of fresh medium was added, and 50 μl CellTiterGlo solution was added (Promega Cat#G7573). The plate was covered with a dark lid and incubated for 10 min. A white sealing tape was applied to the bottom of the plate, and the plate was read in a luminescence plate reader. […] A 2-fold serial dilution was used to generate 8 cell densities from 50,000-390 cells per well in 50 μl media. 50 μl CellTiterGlo was added per well, and the plate was read in a luminescence plate reader after 10 min. The reading was plotted vs. cell number to generate a standard curve and the equation of the curve fit. The compound-treated sample luminescence readings were converted to cell numbers using the curve-fit equation. The percent of inhibition, using untreated control as 100% growth, was then calculated. GI50 was then calculated by GraphPad Prism.

T1 sequence (P27361 whole entry): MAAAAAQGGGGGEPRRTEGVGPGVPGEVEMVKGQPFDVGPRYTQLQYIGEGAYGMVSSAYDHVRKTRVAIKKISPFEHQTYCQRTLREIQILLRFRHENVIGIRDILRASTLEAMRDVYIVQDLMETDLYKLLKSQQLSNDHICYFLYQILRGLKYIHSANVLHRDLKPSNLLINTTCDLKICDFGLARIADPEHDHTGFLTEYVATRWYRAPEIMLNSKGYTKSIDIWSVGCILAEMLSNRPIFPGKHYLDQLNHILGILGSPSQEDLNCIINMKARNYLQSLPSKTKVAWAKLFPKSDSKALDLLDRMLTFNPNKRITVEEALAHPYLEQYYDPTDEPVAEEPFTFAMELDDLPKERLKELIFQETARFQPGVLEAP

| Structure (SMILES) | pIC50 (MEK1 activated ERK1) | pEC50 [1] | GI50 [2] |
| --- | --- | --- | --- |
| C=CC(=O)Nc1ccccc1Nc1nc(Nc2ccc(N(CCN)C(C)=O)cc2OC)ncc1Cl [Compound I-168, N-(2-((2-((4-(N-(2-aminoethyl)acetamido)-2-methoxyphenyl)amino)-5-chloropyrimidin-4-yl)amino)phenyl)acrylamide] | 6.30 to 7.00 | < 6.00 | > 1000 nM |
| C=CC(=O)Nc1ccccc1Nc1nc(Nc2ccc(NC(=O)CO)cc2OC)ncc1Cl [Compound I-186, N-(2-((5-chloro-2-((4-(2-hydroxyacetamido)-2-methoxyphenyl)amino)pyrimidin-4-yl)amino)phenyl)acrylamide] | 6.30 to 7.00 | 6.00 to 6.30 | > 1000 nM |
| C=CC(=O)Nc1ccccc1Nc1nc(Nc2ccc(NC(=O)CCCC(=O)NCCCOCCOCCOCCCNC(=O)CCCC[C@H]3SC[C@H]4NC(=O)N[C@H]43)cc2OC)ncc1Cl [Compound I-301, N^1-(4-((4-((2-acrylamidophenyl)amino)-5-chloropyrimidin-2-yl)amino)-3-methoxyphenyl)-N^5-(15-oxo-19-((3aR,4R,6aS)-2-oxohexahydro-1H-thieno[3,4-d]imidazol-4-yl)-4,7,10-trioxa-14-azanonadecyl)glutaramide] | 6.00 to 6.30 | < 6.00 | > 1000 nM |
| C=CC(=O)Nc1ccccc1Nc1nc(Nc2ccc(NC(=O)COC(C)=O)cc2OC)ncc1Cl [Compound I-183, 2-((4-((4-((2-acrylamidophenyl)amino)-5-chloropyrimidin-2-yl)amino)-3-methoxyphenyl)amino)-2-oxoethyl acetate] | 6.30 to 7.00 | 6.00 to 6.30 | > 1000 nM |
| C=CC(=O)Nc1ccccc1Nc1nc(Nc2ccc(NS(C)(=O)=O)cc2OC)ncc1Cl [Compound I-185, N-(2-((5-chloro-2-((2-methoxy-4-(methylsulfonamido)phenyl)amino)pyrimidin-4-yl)amino)phenyl)acrylamide] | 6.30 to 7.00 | 6.30 to 7.00 | 501 to 999 nM |
| C=CC(=O)Nc1cc(OC)ccc1Nc1nc(Nc2ccc(N(CC)C(C)=O)cc2C#N)ncc1Cl [Compound I-164, N-(2-((5-chloro-2-((2-cyano-4-(N-ethylacetamido)phenyl)amino)pyrimidin-4-yl)amino)-5-methoxyphenyl)acrylamide] | 6.30 to 7.00 | < 6.00 | > 1000 nM |
| C=CC(=O)Nc1cc(OC)ccc1Nc1nc(Nc2ccc(N3CCCN(C(=O)OC(C)(C)C)CC3)cc2C#N)ncc1Cl [Compound I-156, tert-butyl 4-(4-((4-((2-acrylamido-4-methoxyphenyl)amino)-5-chloropyrimidin-2-yl)amino)-3-cyanophenyl)-1,4-diazepane-1-carboxylate] | 6.30 to 7.00 | 6.00 to 6.30 | > 1000 nM |
| C=CC(=O)Nc1ccccc1Oc1nc(NC(C)(C)C)ncc1C(N)=O [Compound I-267, 4-(2-acrylamidophenoxy)-2-(tert-butylamino)pyrimidine-5-carboxamide] | 6.30 to 7.00 | < 6.00 | > 1000 nM |

Further lines, results first:

| pIC50 (MEK1 activated ERK1) | pEC50 [1] | GI50 [2] | Structure (SMILES) |
| --- | --- | --- | --- |
| 6.30 to 7.00 | 6.30 to 7.00 | 101 to 500 nM | C=CC(=O)Nc1ccccc1Nc1nc(NC2CCN(C=O)CC2)ncc1C(F)(F)F [Compound I-11, N-(2-((2-((1-formylpiperidin-4-yl)amino)-5-(trifluoromethyl)pyrimidin-4-yl)amino)phenyl)acrylamide] |
| 6.30 to 7.00 | 6.30 to 7.00 | 101 to 500 nM | C=CC(=O)Nc1ccccc1Nc1nc(NC2CCN(C(C)=O)CC2)ncc1Cl [Compound I-116, N-(2-((2-((1-acetylpiperidin-4-yl)amino)-5-chloropyrimidin-4-yl)amino)phenyl)acrylamide] |
| 6.30 to 7.00 | 6.30 to 7.00 | 501 to 999 nM | C=CC(=O)Nc1ccccc1Nc1nc(Nc2ccc(F)cc2C)ncc1Cl [Compound I-209, N-(2-((5-chloro-2-((4-fluoro-2-methylphenyl)amino)pyrimidin-4-yl)amino)phenyl)acrylamide] |
| 6.30 to 7.00 | 6.00 to 6.30 | 101 to 500 nM | C=CC(=O)Nc1ccccc1Nc1nc(Nc2cc(C(=O)NOCCO)ccc2OC)ncc1C(F)(F)F [Compound I-74, 3-((4-((2-Acrylamidophenyl)amino)-5-(trifluoromethyl)pyrimidin-2-yl)amino)-N-(2-hydroxyethoxy)-4-methoxybenzamide] |
| 6.00 to 6.30 | < 6.00 | 501 to 999 nM | C=CC(=O)N(C)c1ccccc1Nc1nc(N[C@@H]2CCC[C@H](C(N)=O)C2)ncc1Cl (racemic) [Compound I-105, Rac-cis-3-((5-chloro-4-((2-(N-methylacrylamido)phenyl)amino)pyrimidin-2-yl)amino)cyclohexanecarboxamide] |
| 6.30 to 7.00 | 6.00 to 6.30 | > 1000 nM | C=CC(=O)Nc1ccccc1Nc1nc(Nc2ccc(N3CCC[C@@H]3C(N)=O)cc2C#N)ncc1Cl [Compound I-179, (R)-1-(4-((4-((2-acrylamidophenyl)amino)-5-chloropyrimidin-2-yl)amino)-3-cyanophenyl)pyrrolidine-2-carboxamide] |
| > 7.00 | > 7.00 | 101 to 500 nM | C=CC(=O)Nc1ccccc1Nc1nc(N[C@H]2CCCN(C=O)C2)ncc1Cl [Compound I-122, (S)—N-(2-((5-chloro-2-((1-formylpiperidin-3-yl)amino)pyrimidin-4-yl)amino)phenyl)acrylamide] |
| 6.30 to 7.00 | 6.30 to 7.00 | 101 to 500 nM | C=CC(=O)Nc1ccccc1Nc1nc(NC2CCN(S(C)(=O)=O)CC2)ncc1Cl [Compound I-117, N-(2-((5-chloro-2-((1-(methylsulfonyl)piperidin-4-yl)amino)pyrimidin-4-yl)amino)phenyl)acrylamide] |
| 6.30 to 7.00 | 6.00 to 6.30 | 501 to 999 nM | C=CC(=O)Nc1ccccc1Nc1nc(N[C@H]2CCCNC2)ncc1Cl [Compound I-126, (S)—N-(2-((5-chloro-2-(piperidin-3-ylamino)pyrimidin-4-yl)amino)phenyl)acrylamide] |
| 6.30 to 7.00 | 6.30 to 7.00 | 101 to 500 nM | C=CC(=O)Nc1ccccc1Nc1nc(NC2CCN(C(C)=O)CC2)ncc1C(F)(F)F [Compound I-12, N-(2-((2-((1-acetylpiperidin-4-yl)amino)-5-(trifluoromethyl)pyrimidin-4-yl)amino)phenyl)acrylamide] |
| > 7.00 | > 7.00 | 101 to 500 nM | C=CC(=O)Nc1cc(F)ccc1Nc1nc(N[C@@H]2CCC[C@H](C(N)=O)C2)ncc1Cl (racemic) [Compound I-112, Rac-cis-3-((4-((2-acrylamido-4-fluorophenyl)amino)-5-chloropyrimidin-2-yl)amino)cyclohexanecarboxamide] |
